PMC6001580, “Synthesis and molecular modelling studies of pyrimidinones and pyrrolo[3,4-d]-pyrimidinodiones as new antiplasmodial compounds” (Memórias do Instituto Oswaldo Cruz, 2018)
Where “and” joins values, the source holds several entries; their conditions need not be identical. Equal values may be shown once. Read-outs that look alike come from different tables or passages of the source.

Assays:
[1] = test system: chloroquine-resistant Plasmodium falciparum W2 strain; assay: Antiplasmodial in vitro assay (HRPII sandwich ELISA, 72 h); assay type: cell-based; conditions: for IC50: Plasmodium falciparum, W2, 72 h; for SI (selectivity index): SI = MDL50 / IC50 (BGM cells vs P. falciparum W2)
Excerpt: Antiplasmodial in vitro assay - The cultivation of P. falciparum W2 strain (originating from Indochina and cultivated in the Malaria Research Laboratory, Oswaldo Cruz Foundation-Fiocruz), which is chloroquine-resistant, was made according to the protocol of [Trager and Jensen (1976)], using human erythrocytes (A^+) in an RPMI 1640 medium supplemented with human serum. Parasites were synchronised to obtain the young (ring) parasite forms ([Lambros and Vanderberg 1979]). Parasitaemia was adjusted to 0.05% and haematocrit to 1.5%. Subsequently, the cultures were placed in microplates with the drugs, previously diluted in dimethyl sulphoxide and medium (DMSO 0.02% v/v), to be tested in serial dilutions (50 - 0.78 µM), as well as positive controls (chloroquine in serial dilutions; 10 - 0.07 µM) and negative (no drug) controls. All the microplates were incubated for 72 h. The microplates were then subjected to three cycles of freezing and thawing; the parasite growth was measured through the quantification of histidine-rich protein II (HRPII) using specific monoclonal antibodies (MPFM ICLLAB-55A®, USA and MPFG55P ICLLAB®, USA) in sandwich ELISA ([Noedl et al. 2002]). Absorbance was read at 450 nm in an Espectramax 190 spectrophotometer (Molecular Devices, USA), and the determination of the IC50 was made using dose-response curves.

BGM cells = assay: Cytotoxicity evaluation on mammalian cells (MTT); assay type: cell-based; conditions: 24 h, mean of three experiments
Experimental: Cytotoxicity evaluation on mammalian cells - BGM cells (originally acquired from ATCC (American Type Culture Collection), Manassas, VA, USA by the Federal University of Minas Gerais, Brazil, and donated by Dr Antoniana Krettli - Federal University of Minas Gerais) were cultured in 75 cm^2 sterile ﬂasks containing RPMI 1640 medium supplemented with 10% foetal bovine serum (FBS) at a concentration of 5 x 10^3 cells per millilitre in a 5% CO2 atmosphere at 37 °C. Cells were added with the test compounds in serial dilution. When the cell monolayer was confluent, it was trypsinised, washed with a culture medium distributed in a flat-bottomed 96-well plate (1 × 10^5 cells/mL) and incubated for 24 h at 37 °C to ensure cell adherence. Then, the drugs were added in serial dilution (1000-15 µM) and incubated for 24 h at 37 °C. Subsequently, the MTT salt, in a concentration of 3 mg/mL, was added after 3 h; then, the supernatant was removed, and the dye present on the bottom of the plate wells was dissolved in DMSO in a volume of 100 µL/well DMSO. The microplates were then read in an Espectramax 190 (Molecular Devices, USA) spectrophotometer, using the 570 nm filter. The determination of MDL50 was performed using a dose response curves nonlinear regression function ([Denizot and Lang 1986]).

Hemolysis assay = assay type: cell-based; conditions: erythrocyte suspension (1% haematocrit), at 1000 μM, 37 °C, read-out: haemolysis
Experimental: Hemolysis assay - The haemolysis assay was performed according to the protocol described by [Wang et al. (2010)]. The compounds were dissolved in DMSO (0.5% v/v). Suspensions of erythrocytes (1% haematocrit) were incubated with the compounds at serial dilutions ranging from 15 to 1000 µM, at 37 °C for 30 min with a constant stirring. A 0.05% solution of saponin (Sigma-Aldrich) was used as a positive control of the test as it generated 100% haemolysis, and the suspension of erythrocytes in the medium was used as a negative control (blank). Following incubation, suspensions were centrifuged at 1000 g for 10 min, and the absorbance of the supernatants was measured at 540 nm using an Espectramax 190 spectrophotometer. The haemolysis rate of the samples was calculated as follows: % haemolysis = (sample absorbance - blank absorbance) x 100 / absorbance of the control with saponin.

[2] = test system: P. berghei ANKA expressing green fluorescent protein (PbA-GFP); assay: In vivo activity evaluation against P. berghei (four-day test in mice); parameters: species or system Plasmodium berghei; conditions: Swiss mice, 30 mg/Kg orally for four consecutive days, vs untreated controls; for Reduction (%) of parasitaemia, Day eight: day eight after infection; for Reduction (%) of parasitaemia, Day five: day five after infection
Excerpt: In vivo activity evaluation against P. berghei - Swiss mice (Institute of Science and Technology in Biomodels - Fiocruz) were inoculated with 10^5 erythrocytes infected with P. berghei ANKA expressing green fluorescent protein (PbA-GFP, a donation from the malaria research and reference reagent resource centre -MR4, Manassas, VA; deposited by CJ Janse and AP Waters; MR4 number: MRA-865) intraperitoneally (day 1 of the experiment). Three hours after inoculation, the animals were randomly divided into five groups of mice. […] All of the test compounds and chloroquine were administered at a dose of 30 mg/kg, orally by gavage for four consecutive days. On days 5 and 8 after infection, flow cytometry was used to detect and count the number of parasitised red blood cells (RBC) that expressed GFP in relation to 10,000 RBCs, thus assessing the evolution of parasitaemia. […] The antimalarial activity was determined by the percentage reduction in parasitaemia of treated animals compared to untreated controls ([Peters et al. 1975]).

[3] = P. falciparum W2 strain, 72 h, HRPII ELISA, mean of three experiments, read-out: IC50

| Compound | IC50 [1, 3] | MDL50 (BGM cells) | SI (selectivity index) [1] | hemolysis at 30 min, 1000 µM (Hemolysis assay) | Reduction (%) of parasitaemia, Day eight [2] | Reduction (%) of parasitaemia, Day five [2] | IC50 [1] |
| --- | --- | --- | --- | --- | --- | --- | --- |
| O=C1NC2=C(C(=O)N(CCc3ccccc3)C2)C(c2ccccc2Cl)N1 (centres unmarked) [2h] | > 50 µM | > 100 µM | – | – | – | – | – |
| COc1ccc(C2NC(=O)NC3=C2C(=O)N(Cc2ccccc2)C3)cc1OC (centres unmarked) [3k] | > 50 µM | > 100 µM | – | – | – | – | – |
| CCOC(=O)C1=C(CCl)NC(=O)NC1c1ccc([N+](=O)[O-])cc1 (centres unmarked) [1j] | 6 ± 0.8 µM | 26.2 ± 1.1 µM | 4.4 | – | – | – | – |
| CCOC(=O)C1=C(CCl)NC(=O)NC1c1ccc(OC)c(OC)c1 (centres unmarked) [1k] | 3 ± 0.25 µM | 24.5 ± 0.09 µM | 8.2 | – | – | – | – |
| O=C1NC2=C(C(=O)N(Cc3ccccc3)C2)C(c2ccccc2Cl)N1 (centres unmarked) [3h] | 26.7 ± 0.56 µM | > 100 µM | > 3.8 | – | – | – | – |
| O=C1NC2=C(C(=O)N(CCc3ccccc3)C2)C(c2ccc([N+](=O)[O-])cc2)N1 (centres unmarked) [2j] | 25.6 ± 0.09 µM | 8.9 ± 0.9 µM | 0.4 | – | – | – | – |
| CCOC(=O)C1=C(CCl)NC(=O)NC1c1cccc(Br)c1 (centres unmarked) [1c] | 6.17 ± 0.02 µM | 21.7 ± 1.24 µM | 3.5 | – | – | – | – |
| CCOC(=O)C1=C(CCl)NC(=O)NC1c1ccc(Br)cc1 (centres unmarked) [1f] | 1.76 ± 0.27 µM | 22 µM and 22 ± 0.56 µM | 12.5 | 0.95% | 60.9% | 9.1% | – |
| O=C1NC2=C(C(=O)N(Cc3ccccc3)C2)C(c2ccc(Br)cc2)N1 (centres unmarked) [3f] | 26 ± 1.15 µM | > 100 µM | > 3.8 | – | – | – | – |
| COc1ccccc1C1NC(=O)NC2=C1C(=O)N(Cc1ccccc1)C2 (centres unmarked) [3e] | > 50 µM | > 100 µM | – | – | – | – | – |
| CCOC(=O)C1=C(CCl)NC(=O)NC1c1ccc(OC)cc1OC (centres unmarked) [1i] | 2.98 ± 0.18 µM | 9.7 ± 0.46 µM | 3.3 | – | – | – | – |
| O=C1NC2=C(C(=O)N(CCc3ccccc3)C2)C(c2ccc(Br)cc2)N1 (centres unmarked) [2f] | > 50 µM | 18.6 ± 1.21 µM | – | 22.6% | – | – | – |
| CCOC(=O)C1=C(CCl)NC(=O)NC1c1cc(OC)c(OC)c(OC)c1 (centres unmarked) [1g] | 24.1 ± 1.2 µM | 21.7 ± 1.15 µM | 0.9 | – | – | – | – |
| CCOC(=O)C1=C(CCl)NC(=O)NC1c1ccc(Cl)cc1 (centres unmarked) [1d] | 1.96 ± 0.21 µM | 2.5 ± 0.93 µM | 1.3 | 3.6% | – | – | – |
| CCOC(=O)C1=C(CCl)NC(=O)NC1c1ccccc1Cl (centres unmarked) [1h] | 3.12 ± 0.06 µM | 77 µM and 77 ± 0.87 µM | 24.6 | – | 55.2% | 0% | – |
| COc1cc(C2NC(=O)NC3=C2C(=O)N(CCc2ccccc2)C3)cc(OC)c1OC (centres unmarked) [2g] | > 50 µM | 6.2 ± 0.73 µM | < 0.1 | – | – | – | – |

| Compound | IC50 [1, 3] | MDL50 (BGM cells) | SI (selectivity index) [1] | hemolysis at 30 min, 1000 µM (Hemolysis assay) | Reduction (%) of parasitaemia, Day eight [2] | Reduction (%) of parasitaemia, Day five [2] | IC50 [1] |
| --- | --- | --- | --- | --- | --- | --- | --- |
| O=C1NC2=C(C(=O)N(Cc3ccccc3)C2)C(c2ccc(Cl)cc2)N1 (centres unmarked) [3d] | 45 ± 0.79 µM | 86 ± 1.27 µM | 1.9 | – | – | – | – |
| COc1ccc(C2NC(=O)NC3=C2C(=O)N(Cc2ccccc2)C3)c(OC)c1 (centres unmarked) [3i] | > 50 µM | > 100 µM | – | – | – | – | – |
| COc1ccc(C2NC(=O)NC3=C2C(=O)N(CCc2ccccc2)C3)cc1 (centres unmarked) [2b] | 26.4 ± 0.26 µM | 24.6 ± 1.23 µM | 0.93 | 21.7% | – | – | – |
| COc1ccccc1C1NC(=O)NC2=C1C(=O)N(CCc1ccccc1)C2 (centres unmarked) [2e] | 22 ± 0.08 µM | 56 ± 1.83 µM | 2.5 | – | – | – | – |
| CCOC(=O)C1=C(CCl)NC(=O)NC1c1ccc(O)c(OC)c1 (centres unmarked) [1l] | 3 µM | – | – | – | – | – | – |
| COc1ccc(C2NC(=O)NC3=C2C(=O)N(Cc2ccccc2)C3)cc1 (centres unmarked) [3b] | > 50 µM | > 100 µM | – | – | – | – | – |
| O=C1NC2=C(C(=O)N(Cc3ccccc3)C2)C(c2ccccc2)N1 (centres unmarked) [3a] | > 50 µM | > 100 µM | – | – | – | – | – |
| CCOC(=O)C1=C(CCl)NC(=O)NC1c1ccccc1 (centres unmarked) [1a] | 6.38 ± 0.8 µM | 24.6 ± 0.03 µM | 3.9 | – | – | – | – |
| COc1cc(C2NC(=O)NC3=C2C(=O)N(Cc2ccccc2)C3)cc(OC)c1OC (centres unmarked) [3g] | > 50 µM | > 100 µM | – | – | – | – | – |
| CCOC(=O)C1=C(CCl)NC(=O)NC1c1ccc(OC)cc1 (centres unmarked) [1b] | – | 57 µM and 57 ± 0.65 µM | 19 | – | 33.8% | 0% | – |
| O=C1NC2=C(C(=O)N(CCc3ccccc3)C2)C(c2ccccc2)N1 (centres unmarked) [2a] | > 50 µM | > 100 µM | – | – | – | – | – |
| O=C1NC2=C(C(=O)N(Cc3ccccc3)C2)C(c2ccc([N+](=O)[O-])cc2)N1 (centres unmarked) [3j] | > 50 µM | > 100 µM | – | – | – | – | – |
| CCOC(=O)C1=C(CCl)NC(=O)NC1c1ccccc1OC (centres unmarked) [1e] | – | 23.8 ± 0.6 µM | 1.95 | – | – | – | – |
| CCN(CC)CCCC(C)Nc1ccnc2cc(Cl)ccc12 (centres unmarked) [Chloroquine, reference compound] | – | – | – | – | 100% | 97.2% | 0.55 ± 0.09 µM |
| O=C1NC2=C(C(=O)N(CCc3ccccc3)C2)C(c2cccc(Br)c2)N1 (centres unmarked) [2c] | > 50 µM | 6.9 ± 0.97 µM | – | 12.3% | – | – | – |
